Reference: US9023857B2, “Substituted 6-(2-aminobenzylamino)purine derivatives, their use as medicaments and preparations containing these compounds” (Univerzita Palackeho V Olomouci, priority 2009, dated 2015)

What was measured:
[1] = tested on: p21^WAF1 protein in MCF-7 cells; assay: Induction of p21^WAF1 protein in MCF-7 cells (immunoblotting); assay type: cell-based, human
Method: (§1) (a) DO-1, DO-2 and 1801 monoclonal antibodies recognise the N-terminal region of p53 protein, monoclonal antibodies DO-11 and DO-12 recognise different epitopes in the core domain of p53 protein, monoclonal antibodies Bp53-10 and Pab421 recognise the C-terminal region of p53 protein. (b) Monoclonal antibody 118 recognises p21^WAF1.
(§2) For direct immunoblotting, total cellular protein lysates were prepared by harvesting cells in hot Laemmli electrophoresis sample buffer. Proteins were then separated by SDS-polyacrylamide gel electrophoresis (SDS-PAGE) on 10% gel and transferred onto a nitrocellulose membrane in Bio.Rad Mini Trans-Blott Electrophoretic Transfer Cell for 2 hrs at 4° C. applying 150 mA in transfer buffer ([…], 190 mM glycine and 20% methanol). Prestained molecular weight markers (Bio-Rad) were run in parallel. The blotted membranes were blocked in 5% milk and 0.1% Tween 20 in PBS for 2 hrs and probed overnight with monoclonal antibodies. After washing 3 times in PBS plus 0.1% Tween 20, peroxidase conjugated rabbit anti-mouse immunoglobulin antiserum (Dako, Denmark) diluted 1:1000 was used as the secondary antibody. To visualise peroxidase activity, ECL reagents from […] were used according to the manufacturer instructions.
MCF7-DDp53 cell line was derived from MCF-7 parental cell line by stable […] with plasmid pCMVneonDDp53 coding for dominant negative truncated mouse p53 protein including amino acid residues 1-14 and 302-390 under the control of at the CMV promoter. The control cell line MCF-7neo was derived by transfecting MCF-7 cells with pCMVneo vector. Transfections were performed using the Effectene transfection reagent (QIAGEN, Germany) as recommended by the supplier. Stable transfectants were selected at 2 mg/ml G418 sulphate (Life Technologies). The expression of Ddp53 miniprotein in MCF-7Ddp53 cell line has been examined by immunoblotting with Bp53-10 monoclonal antibody. Independently isolated MCF-7Dp53 clones 9, 12 and 14 expressing high levels of Ddp53 miniprotein and MCF-7-neo clones 3, 4 and 7 were used. […]

[2] = tested on: p53 protein in MCF-7 cells expressing wild-type p53; assay: Induction of p53 protein in MCF-7 cells (immunoblotting); assay type: cell-based, human
Method: as §1, §2
First, we determined appropriate concentration of 103 and 105 for our experiments. The MCF-7 (wt p53) cells were treated for 12 hrs with increasing concentrations of 105 ranging from 1 to 100 μM and analysed for p53 protein expression using monoclonal antibody DO-1 (FIG. 3A). […] As shown at FIG. 3C the level of protein expression induced by 5 μM 105 was not substantially different from expression induced by 50 μM concentration was selected for further experiments. Second, the periods of time 6, 12 and 24 hrs were chosen, since the level of protein expression reached a steady state. We analysed the expression of p53 protein in MCF-7 (wt p53), BT549 (mut p53) and BT474 (mut p53) breast cancer cell lines, in HT29 (mut p53) colorectal cancer cell line and in ostaosarcoma cell line HOS (mut p53). […] No induction of p53 was observed following exposure of BT549 and HOS cell lines, expressing mutant p53, to 5 μM 105 for 6, 12 and 24 hrs. No correlation was observed between the sensitivity of cell lines to 105 and the presence of wild-type or mutant p53.

VV = assay type: cell-based, Vaccinia virus strain WR; details: Vaccinia virus on HFFF
[3] = tested on: human T-lymphoblastoid leukaemic cell line CEM; assay: In vitro cytotoxic activity (Calcein AM, 72 hours), CEM; details: read-out: Cytotoxicity IC50 CEM
[4] = MCF7 cells treated for 24 h, immunoblot (FIG. 2)

CCC(CO)Nc1nc(NCc2ccccc2N)c2ncn(C(C)C)c2n1 (stereo not drawn) [Compound 105, 2-({6-[(2-aminobenzyl)amino]-9-isopropyl-9H-purin-2-yl}amino)butan-1-ol]
p21^WAF1 level [1, 4]: Induction
p21^WAF1 induction ([1]; MCF-7Ddp53 clones (dominant-negative Ddp53 miniprotein)): no p21^WAF1 induction
time at which enhanced level of p21^WAF1 protein was observed ([1]; MCF-7 cells): 12 h
tumor suppressor p53 level [2, 4]: Induction
concentration shown to affect the level of p53 protein ([2]; MCF-7 (wt p53), 12 hrs, antibody DO-1): 2 to 5 µM
accumulation of wild-type p53 ([2]; MCF-7, 5 μM, 6, 12 and 24 hrs): significant accumulation
time at which induction of p53 protein was apparent ([2]; MCF-7 cells): 4 h
inhibition of virus replication (in words) (VV): inhibited equally well
IC50 [3]: 4.5 µM
